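Assay format: 96-well plates, 48-hour exposure. TGI: total growth inhibition.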
Tests used:
Assay in all cases: NCI-60 cell line screen, 48 h
UACC-62 melanoma = system: UACC-62 melanoma
SK-MEL-5 melanoma = system: SK-MEL-5 melanoma
OVCAR-5 ovarian = system: OVCAR-5 ovarian
RXF 393 renal = system: RXF 393 renal
HOP-18 NSCLC = system: HOP-18 NSCLC
SNB-19 CNS = system: SNB-19 CNS
SNB-75 CNS = system: SNB-75 CNS
OVCAR-3 ovarian = system: OVCAR-3 ovarian
IGROV1 ovarian = system: IGROV1 ovarian
NCI-H460 lung = system: NCI-H460 lung
A498 renal = system: A498 renal
ACHN renal = system: ACHN renal
RPMI-8226 leukemia = system: RPMI-8226 leukemia
A549 NSCLC = system: A549 NSCLC
NCI-H522 lung = system: NCI-H522 lung
HL-60(TB) leukemia = system: HL-60(TB) leukemia
HOP-62 NSCLC = system: HOP-62 NSCLC
NCI-H23 lung = system: NCI-H23 lung

| SMILES | TGI (UACC-62 melanoma) [µM] | TGI (SK-MEL-5 melanoma) [µM] | TGI (OVCAR-5 ovarian) [µM] | TGI (RXF 393 renal) [µM] | TGI (HOP-18 NSCLC) [µM] | TGI (SNB-19 CNS) [µM] | TGI (SNB-75 CNS) [µM] | TGI (OVCAR-3 ovarian) [µM] | TGI (IGROV1 ovarian) [µM] | TGI (NCI-H460 lung) [µM] | TGI (A498 renal) [µM] | TGI (ACHN renal) [µM] | TGI (RPMI-8226 leukemia) [µM] | TGI (A549 NSCLC) [µM] | TGI (NCI-H522 lung) [µM] | TGI (HL-60(TB) leukemia) [µM] | TGI (HOP-62 NSCLC) [µM] | TGI (NCI-H23 lung) [µM] |
| --- | --- | --- | --- | --- | --- | --- | --- | --- | --- | --- | --- | --- | --- | --- | --- | --- | --- | --- |
| O=C(Cc1csc(-c2nc(CC(=O)NNc3ccccc3)cs2)n1)NNc1ccccc1 | > 100 | > 100 | > 100 | > 100 | > 100 | > 100 | > 100 | > 100 | > 100 | 60.4 | > 100 | > 100 | > 100 | > 100 | 43.5 | > 100 | > 100 | > 100 |
| c1ccc(C2=NOC3(c4ccccc4)SC4CCCCC4CN23)cc1 (stereo unspecified) | 83.1 | 28.7 | > 100 | 71.2 | > 100 | > 100 | 84.8 | > 100 | 32.8 | > 100 | > 100 | 70.9 | 95.4 | 58.5 | 22.6 | > 100 | > 100 | > 100 |
